The values that follow are results of earlier work, collected in patent US20240033249A1, “Drug Implants Containing Darolutamide and Methods of Use Thereof” (The Regents of the University of California, priority 2022, published 2024).

The conditions of this data set: assuming 600 mg daily dose; systemic (e.g., oral) administration.

On to `CC(O)c1cc(C(=O)N[C@@H](C)Cn2ccc(-c3ccc(C#N)c(Cl)c3)n2)[nH]n1` (stereo partly shown) [Darolutamide], for which the “steady state blood plasma concentration of Darolutamide” value is “about 4.79 mg/L”.
